Results reported in patent publication US20110076331A1, “Use of Deuterium Oxide as an Elastase Inhibitor” (priority 2008, published 2011).

Columns and labels:
[1] = tested on: patients with psoriasis vulgaris; test: Half-side hydrogel experiment in psoriasis vulgaris; type: in vivo, human; conditions: 2 wt % Carbopol 980 gel with 1 wt % urea, twice a day, after 4 weeks; vs H2O gel
Protocol: A half-side experiment was conducted by means of hydrogel to determine the effect of D2O in psoriasis vulgaris. The gel was a 2 wt % Carbopol 980 with 1 wt % urea. The pH value of the gel was set at 6.5 with NaOH solution. […] The local psoriasis severity index (LPSI) was used for evaluation (Henneicke-von Zepelin, H. H., Mrowietz, U., Färber, L., Bruck-Borchers, K., Schober, C., Huber, J., Lutz, G., Kohnen, R., Christophers, E., Welzel, D., Highly purified omega-3-polyunsaturated fatty acids for topical treatment of psoriasis. Results of a double-blind, placebo-controlled multicenter study. Br J Dermatol. 1993; 129:713-7). The patients were relied on to apply the content of tubes marked “right” and “left” twice a day on the corresponding lesions on the right or left elbow. A gel produced with D2O was found in one tube, the gel in the other tube was prepared with H2O. Division occurred randomly. LPSI was determined once a week.

[2] = tested on: white New Zealand rabbits; test: Animal model for myocardial reperfusion damage (coronary artery ligature); type: in vivo, rabbit; conditions: intravenous D2O isotonic saline 15 minutes before or 25 minutes after reopening of the coronary artery; vs H2O-treated animals
Protocol: In an animal model for reperfusion damage a reduced blood supply to the heart muscle tissue was achieved by ligature of a coronary artery in male white New Zealand rabbits, which led to damage (Bidouard, J. P. et al.; SSR69071, an elastase inhibitor, reduces myocardial infarct size following ischemia reperfusion injury, Eur J Pharmacol. 2003; 461:49-52). By thoracotomy a side branch of the left coronary artery was closed by ligature for 30 minutes and then opened again in order to achieve reperfusion over 120 minutes. Before removal of the heart an ink bolus (pelican ink) was introduced to the ascending aorta. To investigate the effect of D2O on reperfusion damage the animals were divided into three groups of two animals each. Two groups received an intravenous treatment with D2O in the form of isotonic saline either 15 minutes before (experimental group 1) or 25 minutes after (experimental group 2) reopening of the coronary artery, the other group (control group) was treated with H2O as isotonic saline. After removal of the heart, unclamping of the aorta, formalin fixation and paraffin embedding the heart was investigated for homogeneity of ink distribution in the capillary system through three cross sections and by immunohistochemistry. The immunohistochemical detection of granulocytes occurred by a-naphthol chloroacetate esterase staining. […]

[3] = tested on: patients with leukocytoclastic skin vasculitis; test: Half-side gel experiment in leukocytoclastic skin vasculitis; type: in vivo, human; conditions: D2O-containing gel on lower leg three times a day, 4 days; vs H2O gel
Protocol: Leukocytoclastic skin vasculitis is characterized by recurring behavior. A special feature of this dermatosis is destruction of cutaneous capillaries by an inflammatory process in which neutrophil granulocytes participate almost exclusively. To check the effect of D2O-containing gel on the extent of cutaneous lesions patients with leukocytoclastic skin vasculitis were treated in a half-side experiment. Either an H2O- or D2O-containing gel were applied in randomized fashion on the right or left lower leg three times a day. After a treatment time of 4 days the treatments was compared by means of a clinical score that evaluates the number and expression of vasculitis lesions.

[4] = tested on: subjects with acute sinusitis; test: Aerosol inhalation in acute sinusitis (rhinoendoscopy); type: in vivo, human; conditions: D2O aerosol with 150 mM NaCl inhaled for 15 minutes
Protocol: Aerosols from D2O and H2O each mixed with 150 mM NaCl were prepared according to example 2. Subjects with acute sinusitis in the maxillary sinus area were divided into two groups. The experimental group inhaled the D2O aerosol for 15 minutes, the control group the H2O aerosol. During inhalation the subjects were relied on to inhale through the nose as much as possible. Every 3 hours after inhalation a rhinoendoscopic examination of the sinuses was conducted.

Wistar rats [5] = test: Animal model of allergic conjunctivitis (chicken protein); type: in vivo, rat; conditions: D2O-based isotonic saline trickled together with chicken protein
Protocol: A corresponding animal model was used to test the efficacy of eye drops prepared with D2O (Minami et al., Biol. Pharm. Bull 28:473-476, 2005). In 6-week-old Wistar rats an allergy to chicken protein was produced by injection of chicken protein together with alum and 10^10 B. pertussis into the soles of the feet and then a booster with chicken protein in the back area. Before the experiment the animals were kept in a climatized cage and after 10 minutes of adaptation 5 μL chicken protein solution was trickled into each eye. The animals were then transferred to an observation cage and the scratching movements in the direction of the eyes counted over a period of 20 minutes. Hyperemia and conjunctival edema were then determined.
To investigate an effect of D2O on the symptoms caused by chicken protein either H2O- or D2O-based isotonic saline was trickled together with the chicken protein in a double-blind design.

Long-Evans rats = test: Cerebral ischemia/reperfusion animal model; type: in vivo, rat; conditions: D2O in isotonic saline infused 15 minutes before ischemia and right before reperfusion; vs H2O
Protocol: The effect of D2O on cerebral ischemia was investigated in an animal model. For this purpose cerebral ischemia was produced for 1 hour in adult Long-Evans rats by closure of both carotid arteries, which followed reperfusion over 24 hours. Final observation with evaluation of neurovegetative symptoms occurred (spontaneous activity, coordinated walking, stretching of the front paw and climbing). Damage to the brain tissue was then investigated histologically. In two experimental groups of three rats each, either D2O (experimental group) or H2O (control group) in isotonic saline was infused in the animals 15 minutes before initiation of ischemia and right before subsequent reperfusion.

Wistar rats [6] = test: Animal model of infectious peritonitis (S. aureus ATCC 25923), peritoneal lavage; type: in vivo, rat; conditions: peritoneal lavage 4 hours after S. aureus, vs isotonic saline
Protocol: Male Wistar rats received a catheter for peritoneal dialysis and for induction of peritonitis and for further peritoneal dialysis. A purulent peritonitis was produced by introduction of a suspension of S. aureus ATCC 25923 (1×10^9 c.f.u. in 0.5 mL). After 4 hours peritoneal lavage was carried out either with isotonic saline or with isotonic […]. After the death of the animals, but at the latest after 24 hours, bacterial infestation and the inflammatory reaction in the peritoneum were investigated histologically.

brown Norwegian rats = test: Animal model of allergic bronchial asthma (ovalbumin); type: in vivo, rat; conditions: aerosol of isotonic D2O solution for 6 days before ovalbumin aerosol; after 24 hours
Protocol: The effect of D2O in allergic asthma was presented in an animal model of 10-week-old brown Norwegian rats (Roumestan et al., Resp Res 8:35-46, 2007). Sensitization of the animals occurred by repeated intraperitoneal injection of ovalbumin. The animals were then introduced to a climatized cage and constantly treated with an aerosol of isotonic H2O or D2O solution for 6 days. Asthma triggering by an ovalbumin-containing aerosol then occurred. The change in airway resistance was then determined as parameter by barometric plethysmography on the living animals after 24 hours. A significant intensification of airway resistance was found in the H2O-treated group.

[2H]O[2H] [D2O, deuterium oxide]
local psoriasis severity index (LPSI) [1]: significant reduction of LPSI | heart muscle damage (granulocytes, capillary ink marking) [2]: significantly lower heart muscle damage | clinical score (number and expression of vasculitis lesions) [3]: distinct reduction of the clinical score | mucosal swelling ([4]; vs H2O aerosol control group): significant reduction of mucosal swelling | outflow of secretion ([4]; vs control group): improved outflow of secretion | number of scratching movements in the eye direction (Wistar rats [5]; after 20 minutes, vs H2O): significant reduction in the number of scratching movements | hyperemia and edema (Wistar rats [5]; vs H2O group): reduced | reperfusion damage (granulocytes in histological sections, neurological behavior) (Long-Evans rats): significant effect on the reduction in reperfusion damage | inflammatory activity in the peritoneum (Wistar rats [6]; histology): lower inflammatory activity | number of bacteria in the quantitative culture (Wistar rats [6]): reduced number of bacteria | change in airway resistance (barometric plethysmography) (brown Norwegian rats): only a slight increase in airway resistance
